Test results published in patent US9745328B2, “Flap modulators” (JANSSEN PHARMACEUTICA NV, priority 2013, dated 2017).
Read-outs that look alike come from different tables or passages of the source.

How the values were obtained:
human FLAP = human FLAP (Homo sapiens (Human), UniProt P20292); experiment: FLAP binding assay (HTRF format); conditions: human FLAP wild type, Table 6 (additional runs)
How it was run: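 Binding of compounds to FLAP read out as HTRF ratio. Values are the mean of two assay plates, each sample run in duplicate per plate.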

[1] = tested on: leukotriene pathway in human whole blood (LTB4); experiment: Human whole blood assay (LTB4 levels after calcium ionophore A23187 stimulation); assay type: cell-based; conditions: Homo sapiens, read-out: Human Whole Blood LTB4 IC50 1:1
How it was run: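 Single-replicate data from at least one healthy donor: compound pre-incubated 15 min at 37° Celsius in 1:1 RPMI-diluted heparinised blood, followed by 30 min calcium ionophore A23187 (7 μg/mL) challenge at 37° Celsius. LTB4 in plasma quantified by kit; IC50 via 4-parameter equation.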

[2] = human whole blood diluted 1:1, A23187 stimulation, Table 6 (additional runs)

Sequence of human FLAP (P20292 whole entry): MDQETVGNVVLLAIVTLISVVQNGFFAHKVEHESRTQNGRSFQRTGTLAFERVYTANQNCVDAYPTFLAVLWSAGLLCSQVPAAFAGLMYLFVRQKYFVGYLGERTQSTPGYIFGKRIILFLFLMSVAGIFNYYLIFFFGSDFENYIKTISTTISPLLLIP

| SMILES | Ki (human FLAP) | IC50 [1, 2] | IC50 [1] |
| --- | --- | --- | --- |
| Nc1cnc(-c2ccc(-c3cccnc3-c3ccccc3)cc2F)cn1 [Example 893, 5-[2-Fluoro-4-(2-phenylpyridin-3-yl)phenyl]pyrazin-2-amine] | 30.3 nM | 603 nM |  |
| Nc1cnc(-c2ccc(-c3cccnc3Oc3ccccc3)cc2F)cn1 [Example 894, 5-[2-Fluoro-4-(2-phenoxypyridin-3-yl)phenyl]pyrazin-2-amine] | 3.8 nM | 141 nM |  |
| Nc1ncc(-c2ccc(-c3cccnc3Oc3ccccc3)cc2F)cn1 [Example 895, 5-[2-Fluoro-4-(2-phenoxypyridin-3-yl)phenyl]pyrimidin-2-amine] | 13.2 nM | 222 nM |  |
| Nc1cnc(-c2ccc(-c3cccnc3Oc3cccnc3)cc2F)cn1 [Example 896, 5-{2-Fluoro-4-[2-(pyridin-3-yloxy)pyridin-3-yl]phenyl}pyrazin-2-amine] | 22.1 nM | 466 nM |  |
| Nc1cnc(-c2ccc(-c3cccnc3S(=O)(=O)c3ccccc3)cc2F)cn1 [Example 897, 5-{2-Fluoro-4-[2-(phenylsulfonyl)pyridin-3-yl]phenyl}pyrazin-2-amine] | 7 nM | 90.3 nM |  |
| Nc1ncc(-c2ccc(-c3cccnc3S(=O)(=O)c3ccccc3)cc2F)cn1 [Example 898, 5-{2-Fluoro-4-[2-(phenylsulfonyl)pyridin-3-yl]phenyl}pyrimidin-2-amine] | 79.7 nM | 928 nM |  |
| Nc1cnc(-c2ccc(-c3cccnc3S(=O)(=O)c3cccnc3)cc2F)cn1 [Example 899, 5-{2-Fluoro-4-[2-(pyridin-3-ylsulfonyl)pyridin-3-yl]phenyl}pyrazin-2-amine] | 77 nM | 87.3 nM |  |
| CN1CCC(S(=O)(=O)c2ncccc2-c2ccc(-c3cnc(N)cn3)c(F)c2)C1 (stereo not shown) [Example 900, 5-(2-Fluoro-4-{2-[(1-methylpyrrolidin-3-yl)sulfonyl]pyridin-3-yl}phenyl)pyrazin-2-amine] | 35.1 nM | 40.8 nM |  |
| CC(C)S(=O)(=O)c1nc(C(F)(F)F)ccc1-c1ccc(-c2cnc(N)cn2)c(F)c1 [Example 901, 5-(2-Fluoro-4-{2-[(1-methylethyl)sulfonyl]-6-(trifluoromethyl)pyridin-3-yl}phenyl)pyrazin-2-amine] | 1.8 nM | 1.6 nM |  |
| CC(C)S(=O)(=O)c1nc(C(F)(F)F)ccc1-c1ccc(-c2cnc(N)nc2)c(F)c1 [Example 902, 5-(2-Fluoro-4-{2-[(1-methylethyl)sulfonyl]-6-(trifluoromethyl)pyridin-3-yl}phenyl)pyrimidin-2-amine] | 18.4 nM | 88.6 nM |  |
| CC(=O)N1CCCC(S(=O)(=O)c2ncccc2-c2ccc(-c3cnc(N)cn3)c(F)c2)C1 (stereo not shown) [Example 903, 5-(4-{2-[(1-Acetylpiperidin-3-yl)sulfonyl]pyridin-3-yl}-2-fluorphenyl)pyrazin-2-amine] | 38.7 nM | 63.4 nM |  |
| Nc1cnc(-c2ccc(-c3cccnc3S(=O)(=O)C3CCN(CCO)CC3)cc2F)cn1 [Example 904, 2-[4-({3-[4-(5-Aminopyrazin-2-yl)-3-fluorophenyl]pyridin-2-yl}sulfonyl)pipendin-1-yl]ethanol] | 255 nM | 105 nM |  |
| Nc1cnc(-c2ccc(-c3ccc(C(F)(F)F)nc3S(=O)(=O)C3CCOCC3)cc2F)cn1 [Example 906, 5-{2-Fluoro-4-[2-(tetrahydro-2H-pyran-4-ylsulfonyl)-6-(trifluoromethyl)pyridin-3-yl]phenyl}pyrazin-2-amine] | 0.3 nM | 2 nM |  |
| Nc1ncc(-c2ccc(-c3ccc(C(F)(F)F)nc3S(=O)(=O)C3CCOCC3)cc2F)cn1 [Example 907, 5-{2-Fluoro-4-[2-(tetrahydro-2H-pyran-4-ylsulfonyl)-6-(trifluoromethyl)pyridin-3-yl]phenyl}pyrimidin-2-amine] | 6 nM |  | 12 nM |
| CS(=O)(=O)N1CCC(S(=O)(=O)c2ncccc2-c2ccc(-c3cnc(N)cn3)c(F)c2)CC1 [Example 908, 5-[2-Fluoro-4-(2-{[1-(methylsulfonyl)piperidin-4-yl]sulfonyl}pyridin-3-yl)phenyl]pyrazin-2-amine] | 26.6 nM | 43.7 nM |  |
| CS(=O)(=O)N1CCC(S(=O)(=O)c2ncccc2-c2ccc(-c3cnc(N)nc3)c(F)c2)CC1 [Example 909, 5-(2-Fluoro-4-(2-{[1-(methylsulfonyl)piperidin-4-yl]sulfonyl}pyridin-3-yl)phenyl]pyrimidin-2-amine] | 253 nM | 117 nM |  |
| CC(=O)N1CCC(S(=O)(=O)c2nc(C(F)(F)F)ccc2-c2ccc(-c3cnc(N)cn3)c(F)c2)CC1 [Example 910] | 2.9 nM | 9.2 nM |  |
| CC(=O)N1CCC(S(=O)(=O)c2nc(C(F)(F)F)ccc2-c2ccc(-c3cnc(N)nc3)c(F)c2)CC1 [Example 911, 5-(4-{2-[(1-Acetylpiperidin-4-yl)sulfonyl]-6-(trifluoromethyl)pyridin-3-yl}-2-fluorophenyl)pyrimidin-2-amine] | 166 nM | 28.7 nM |  |
| Nc1cnc(-c2ccc(-c3ccc(C(F)(F)F)nc3S(=O)(=O)C3CCS(=O)(=O)CC3)cc2F)cn1 [Example 912, 5-(4-{2-[(1,1-Dioxidotetrahydro-2H-thiopyran-4-yl)sulfonyl]-6-(trifluoromethyl)pyridin-3-yl}-2-fluorophenyl)pyrazin-2-amine] | 0.5 nM | 8.8 nM |  |
| Nc1ncc(-c2ccc(-c3ccc(C(F)(F)F)nc3S(=O)(=O)C3CCS(=O)(=O)CC3)cc2F)cn1 [Example 913, 5-(4-{2-[(1,1-Dioxidotetrahydro-2H-thiopyran-4-yl)sulfonyl]-6-(trifluoromethyl)pyridin-3-yl}-2-fluorophenyl)pyrimidin-2-amine] | 6.3 nM | 11.9 nM |  |
